Consider 2 compounds from patent US7576128B2 (priority 2004, dated 2009).

Assay [1] has as its target T1, hAR (human androgen receptor) (Homo sapiens, UniProt P10275).
T1 construct: made in house; host or cells: baculovirus/Sf9 insect cells
T1 sequence (P10275 1-920): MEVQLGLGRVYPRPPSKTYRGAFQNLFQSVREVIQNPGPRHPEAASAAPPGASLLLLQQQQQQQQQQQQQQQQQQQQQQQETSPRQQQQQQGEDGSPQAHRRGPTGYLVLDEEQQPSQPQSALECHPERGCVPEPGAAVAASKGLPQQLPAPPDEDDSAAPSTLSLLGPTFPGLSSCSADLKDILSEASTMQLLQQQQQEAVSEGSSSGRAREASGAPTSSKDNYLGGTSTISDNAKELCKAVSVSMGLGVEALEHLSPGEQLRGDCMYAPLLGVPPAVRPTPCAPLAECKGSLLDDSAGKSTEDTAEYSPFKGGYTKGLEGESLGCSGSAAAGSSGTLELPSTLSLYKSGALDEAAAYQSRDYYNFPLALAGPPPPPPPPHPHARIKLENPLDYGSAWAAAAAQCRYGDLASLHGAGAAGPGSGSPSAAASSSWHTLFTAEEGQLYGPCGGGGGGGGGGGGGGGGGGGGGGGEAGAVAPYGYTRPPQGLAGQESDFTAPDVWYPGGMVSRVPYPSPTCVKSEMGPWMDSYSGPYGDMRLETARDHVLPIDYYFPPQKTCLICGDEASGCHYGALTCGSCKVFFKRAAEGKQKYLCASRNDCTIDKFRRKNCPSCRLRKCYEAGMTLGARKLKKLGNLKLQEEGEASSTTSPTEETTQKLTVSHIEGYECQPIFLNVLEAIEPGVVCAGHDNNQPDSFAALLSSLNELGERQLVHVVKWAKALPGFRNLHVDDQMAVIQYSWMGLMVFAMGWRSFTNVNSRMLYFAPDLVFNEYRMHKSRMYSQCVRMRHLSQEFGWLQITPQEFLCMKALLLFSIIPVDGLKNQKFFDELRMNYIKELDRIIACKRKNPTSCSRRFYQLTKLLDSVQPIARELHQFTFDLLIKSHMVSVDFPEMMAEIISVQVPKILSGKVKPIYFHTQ
Put plainly: Competitive binding analysis on baculovirus/Sf9 generated hAR extracts with 3H-DHT tracer. Here is the method:
The description below describes how the assay was carried out.
Competitive binding analysis was performed on baculovirus/Sf9 generated hAR extracts in the presence or absence of different concentrations of test agent and a fixed concentration of ^3H-dihydrotestosterone (^3H-DHT) as tracer. This binding assay method is a modification of a protocol previously described (Liao S., et. al. J. Steroid Biochem. 20:11-17 1984). Briefly, progressively decreasing concentrations of compounds are incubated in the presence of hAR extract (Chang et al. P.N.A.S. Vol. 89, pp. 5546-5950,1992), hydroxylapatite, and 1 nM ^3 H-DHT for one hour at 4° C. Subsequently, the binding reactions are washed three times to completely remove excess unbound ^3 H-DHT. hAR bound ^3H-DHT levels are determined in the presence of compounds (=i.e competitive binding) and compared to levels bound when no competitor is present (=i.e. maximum binding). Compound binding affinity to the hAR is expressed as the concentration of compound at which one half of the maximum binding is inhibited.

The next assay has as its system male Syrian hamsters. As to the kind of experiment: Animal model for inhibition of sebum production (hamster ear, HPLC of sebum components). In kind it is in vivo. Conditions: for % Reduction in CE: cholesterol ester; for % Reduction in CE / % Reduction in WE: 3 w/v% topical twice daily, five days a week, 4 weeks, difference from vehicle control; for Sum CE + WE: summation of CE and WE reductions; for % Reduction in WE: wax ester. As to the method:
Luderschmidt et al describes an animal model for testing whether compounds are capable of modulating sebum secretion. Arch. Derm. Res. 258, 185-191 (1977). This model uses male Syrian hamsters, whose ears contain sebaceous glands. Selected compounds produced above were screened in this model.
Testing for sebum inhibition was carried out in the following manner. Male Syrian hamsters aged 9 to 10 weeks were introduced into the laboratory environment and acclimated for 2 weeks prior to use in the study. Each group consisted of 5 animals and were run in parallel with vehicle and positive controls. Prior to administration, 30mg of each compound was dissolved in 1 mL of Universal solvent (ethanol/propylene glycol (70/30%v/v) to achieve a final concentration of 3 w/v%.
Animals were dosed topically twice daily, five days a week, for 4 weeks. Each dose consisted of 25 micro liters of vehicle control or drug. The dose was applied to the ventral surfaces of both the right and left ears. All animals were sacrificed approximately 18-24 hours after the final dose. The right ears were collected from each animal and used for sebum analysis.
The ears were prepped for HPLC analysis in the following manner. One 8mm distal biopsy punch was taken, just above the anatomical “V” mark in the ear to normalize the sample area. The punch was pulled apart. The ventral biopsy surface (the area where the topical dose was directly applied to the sebaceous glands) was retained for testing and the dorsal surface of the biopsy punch was discarded.
HPLC analysis was carried out on an extract of the tissue sample. Tissue samples were contacted with 3ml of solvent (a 4:1 admixture of 2,2,4-trimethylpentane and isopropyl alcohol). The mixture was shaken for 15 minutes and stored overnight at room temperature, protected from light. The next morning 1 milliliter of water was added to the sample and shaken for 15 minutes. The sample was then centrifuged at approximately 1500 rpm for 15 minutes. Two ml of the organic phase (top layer) was transferred to a glass vial, dried at 37° C., under nitrogen, for approximately 1 hour, and then lyophilized for approximately 48 hours. The samples were then removed from the lyophilizer and each vial was reconstituted with 600 μl of solvent A (trimethylpentane/tetrahydrofuran (99:1). The samples were then recapped and vortexed for 5 minutes.
The results are reported as the reduction in cholesterol ester (CE) and wax ester (WE) production, when compared to the vehicle control.
Columns 1 and 2 identify the compound by structure and Example number. Columns 3 through 5 show the effect the compounds had on the -reduction of sebum components (CE and WE). The results are expressed as the difference from the vehicle control. A positive number reflects a decrease in the production of the sebum component being measured, i.e. cholesterol ester (CE) or wax ester (WE).

Molecules are shown by their SMILES. Read-outs that look alike come from different tables or passages of the source.

One may read the IC50 as the midpoint of a concentration-inhibition curve. Consider `C[C@H](O)CC[C@H](C)Oc1ccc(C#N)c(C(F)(F)F)c1` [Example 23, (1S,4S)-4-(4-Hy-droxy-1-methylpentyl-oxy)-2-tri-fluoromethyl-benzonitrile], for which the IC50 in assay [1] was found to be 0.041 µM. Further, in the assay on male Syrian hamsters, the “% Reduction in CE” value came to 67%, the “Sum CE + WE” value turned out to be 154% and the “% Reduction in WE” value was found to be 87%.
In the case of `CCCCC(COc1ccc(C#N)c(C(F)(F)F)c1)C(C)O` (centres unmarked) [Example 15, 4-[2-(1-Hydroxy-ethyl)-hexyloxy]-2-tri-fluoromethyl-benzonitrile], the IC50 in assay [1] (hAR extract, 1 nM 3H-DHT, one hour at 4° C., mean of multiple tests, read-out: AR Binding IC50) was 0.21 µM. Moreover, in the assay on male Syrian hamsters, the “% Reduction in CE” value came out at 54%, the “Sum CE + WE” value stood at 128% and the “% Reduction in WE” value was found to be 74%.
